Test results reported in patent publication US12070445B2, “System and assay for monitoring production/release of membrane-lytic toxins in bacteria and compounds for modulating same” (priority 2021, dated 2024).
Entries after “also recorded” stand apart in the source; their conditions may differ. Where a SMILES comes first, the peptide text is derived from it. Bridges are numbered along the chain shown (N, C = ends).

Tests used:
Format in all cases: cell-based
[1] = system: agr; experiment: agr YFP transcriptional reporter assay (S. aureus AH1677 with pDB59); conditions: Staphylococcus aureus
Method: Bacterial strains and culture. All bacteria were grown at 37° C. with 200 rpm shaking unless otherwise specified. S. aureus and P. aeruginosa were grown in BHI medium and LB medium, respectively. S. aureus AH1677 (with an agr-YFP reporter plasmid) and P. aeruginosa PAO1-PGSC (with a plasI-LVAgfp reporter plasmid) were used as QS transcriptional reporters and grown with 10 μg/mL chloramphenicol and 300 μg/mL carbenicillin, respectively. All other strains were grown without supplemental antibiotic. S. aureus RN6390b and P. aeruginosa PAO1-PGSC were used as WT strains in vesicle lysis experiments, while S. aureus RN9222 and P. aeruginosa PAO-JG35 were used as QS mutants. RN9222 was grown without antibiotic as it was not used as a reporter strain (i.e., it served only as QS mutant).
High-throughput screening and follow-up analysis protocols. Test compounds and positive control 1 were delivered in 2.5 nL aliquots of DMSO with an Echo 550 liquid handler (LabCyte Inc.) into black 384-well microtiter plates (Corning). All test compounds were tested at 10 μM; positive control 1 was tested at 250 nM. DMSO was used as a negative control. Overnight cultures (2 mL) of WT S. aureus (RN6390b) were grown at 37° C. with shaking at 200 rpm. These cultures were diluted 1:500 (v/v) in fresh BHI medium, at which point vesicle solutions were added to a final concentration of 1 mM phospholipid (as determined by ^31P NMR analyses). This vesicle-cell mixture was then added to the 384-well microtiter plates with a Multidrop 384 liquid-dispensing robot (Thermo Scientific) for a total volume of 50 μL per well. Plates were incubated statically for ˜24 hr at 37° C., at which point fluorescence (excitation 483, emission 530) and OD600 (absorbance at 600 nm) measurements were made using a CLARIOstarR Plus microtiter plate reader (BMG Labtech) running MARS data analysis software. Scatter plots were generated using the Collaborative Drug Discovery Vault informatics platform. The dose-response experiment using the vesicle lysis assay was performed in a 384-well plate in technical duplicate with compound concentrations of 0.1, 0.25, 0.5, 1, 2.5, 5, 10, and 20 μM. Dose-response curves were generated using variable slope (4 parameter) non-linear regression analysis for compound inhibition using GraphPad Prism software (v. 9). Analysis of the QS modulatory activity of the HTS hits and 6 (savirin) was performed using the S. aureus YFP transcriptional reporter strain. HTS hits were purchased directly from Life Chemicals, Inc. DMSO stock solutions (10 mM) of each compound were prepared and stored at −20° C. Serial dilutions (1:3) were prepared from the stock solutions in DMSO, and 2 μL aliquots of the resulting dilutions were added to the wells of black 96-well microtiter plates (Corning). Overnight cultures of the S. aureus reporter strain (2 mL) were grown at 37° C. with shaking at 200 rpm. Cultures were diluted 1:50 (v/v) into fresh BHI medium, and 198 μL of this diluted culture were added to each well containing compound, for a total volume of 200 μL per well. All plates contained a vehicle control consisting of 2 μL of DMSO and 198 μL of culture and a media control consisting of 200 μL BHI. Plates were incubated for ˜24 hours at 37° C. with shaking at 200 rpm. Fluorescence (excitation 510, emission 544) and OD600 measurements were acquired with a PerkinElmer EnVision microtiter plate reader running Envision Manager software. Background fluorescence from BHI control was subtracted from raw fluorescence reads, OD600 corrected, and finally normalized to vehicle control. Dose-response curves and IC50 values were generated using 3-parameter non-linear regression analysis for compound inhibition using GraphPad Prism software (v. 9). All compounds were tested in technical triplicate with at least 3 biological replicates.

[2] = system: WT P. aeruginosa (PAO1-PGSC); experiment: Microtiter plate (96-well) vesicle lysis assay with WT P. aeruginosa; conditions: 10 μM OdDHL and PQS, 1 mM BHL, 200 μM 9
Method: (§1) Compound handling and preparation. OdDHL and BHL (Hodgkinson et al., 2011), S. aureus AIP and peptide derivatives 1-5 (Tal-Gan et al., 2013, Tal-Gan et al., 2016, Vasquez and Blackwell, 2019), and compounds 7-9 (Welsh and Blackwell, 2016a, Boursier et al., 2018, Manson et al., 2020) were synthesized using previously described methods. PQS and compound 6 were purchased from Millipore Sigma and AK Scientific respectively. Compounds were stored dry at −20° C. until needed and then dissolved in DMSO. DMSO stock solutions were prepared at concentrations that varied with compound potency and apparent solubility. Final in-well compound concentrations for 96-well vesicle lysis assays, unless noted otherwise, were: 10 μM for AIP, OdDHL, and PQS; 1 mM for BHL; 100 nM for 1-4; 10 μM for 5; 20 μM for 6; 100 μM for 7 and 8; and 200 μM for 9.
(§2) Production of phospholipid vesicles with encapsulated calcein. Large unilamellar vesicles (LUVs) were produced by adapting a freeze-thaw and vesicle extrusion procedure (Mayer et al., 1986). Briefly, stock solutions of phospholipids (DOPC, DPPC, DPPE, or cholesterol) in chloroform were mixed to the desired lipid compositions (70 mol % DOPC/30 mol % cholesterol for S. aureus vesicles or 68 mol % DPPC, 30 mol % cholesterol, 2 mol % DPPE for P. aeruginosa vesicles), and the chloroform was removed using an N2 stream or rotary evaporation followed by drying for at least one hour under vacuum. Self-quenching solutions of calcein were prepared by combining calcein and PBS or a specially prepared calcein buffer (1 mM EDTA, 10 mM Trisbase, and 100 mM NaCl; pH 8) to a calcein concentration of […]. The resulting solutions were titrated with 10 M aqueous NaOH until all calcein was dissolved and the solution reached pH 7.4 or pH 8 for PBS and the calcein buffer, respectively. The resulting calcein solutions were added to the dried phospholipid films (PBS for S. aureus formulations and the calcein buffer for the P. aeruginosa formulations) for a final lipid concentration of 5 mg/mL. The resulting lipid solutions were vortexed vigorously and briefly sonicated in a bath sonicator to form a turbid vesicle suspension. The vesicle suspensions were then freeze-thawed five times by alternately immersing them into an iPrOH/dry ice bath and a warm water bath (˜60° C.). Vesicles prepared for continuous time-course experiments were passed at least 5 times through a 100 nm polycarbonate filter using a Mini-prep extruder. Vesicles prepared for the high-throughput screen were passed through the filter 3 times. The resulting vesicles were then separated from external, unloaded calcein using a hand-packed Sephadex-G50 size exclusion chromatography column. The concentration of phospholipid in the solution was quantified using ^31P NMR (per the above protocol), and the phospholipid concentration was adjusted to 2 mM for unsaturated lipid solutions and 1 mM for saturated lipid solutions in their respective buffers. The resulting vesicles were characterized by dynamic light scattering and found to have a hydrodynamic diameter of ˜150 nm (FIGS. 3A-3C), which agrees with previous reports describing vesicle production using a similar method (Lapinski et al., 2007).
Microtiter plate vesicle lysis assays. Portions of media (2 or 10 mL) were inoculated with individual bacterial colonies and allowed to shake overnight. […]

[3] = system: WT S. aureus (RN6390b); experiment: Microtiter plate (96-well) vesicle lysis assay with WT S. aureus; conditions: for calcein leakage with agr inhibitors at equivalent concentration: all compounds at 100 nM, 12 hr
Method: as §1, §2
Microtiter plate vesicle lysis assays. Portions of media (2 or 10 mL) were inoculated with individual bacterial colonies and allowed to shake overnight. From these overnight cultures, subcultures were prepared by diluting the cultures 1:50 (v/v) in fresh BHI for S. aureus or 1:100 (v/v) in fresh LB for P. aeruginosa. An aliquot of each subculture (178 μL) was added to 20 μL of vesicle suspension and 2 μL of compound solution (dissolved in DMSO at 100× working concentration) in a clear-bottomed, black 96-well microtiter plate (Corning 3904). For controls, DMSO (vehicle) or Triton X-100 (1% final concentration) was substituted for compound. […]

[4] = system: S. aureus; experiment: S. aureus growth (OD600); conditions: S. aureus WT and QS mutant with vesicles, 12 hr
Method: Microtiter plate vesicle lysis assays. Portions of media (2 or 10 mL) were inoculated with individual bacterial colonies and allowed to shake overnight. From these overnight cultures, subcultures were prepared by diluting the cultures 1:50 (v/v) in fresh BHI for S. aureus or 1:100 (v/v) in fresh LB for P. aeruginosa. An aliquot of each subculture (178 μL) was added to 20 μL of vesicle suspension and 2 μL of compound solution (dissolved in DMSO at 100× working concentration) in a clear-bottomed, black 96-well microtiter plate (Corning 3904). For controls, DMSO (vehicle) or Triton X-100 (1% final concentration) was substituted for compound. Plate covers were coated with an aqueous solution of 0.05% Triton X-100 and 20% ethanol (Brewster, 2003) to prevent the accumulation of condensation. Plates were incubated in a Biotek Synergy 2 microplate reader running Gen5 1.05 software at 37° C. with shaking at the high-speed setting. Fluorescence (excitation 500 nm, emission 540 nm) and OD600 (absorbance at 600 nm) measurements were recorded every 15 minutes for 12 hours. All experiments were performed in technical triplicate in a single microtiter plate. Biological triplicates were then obtained over three days. GraphPad Prism software (v. 9) was used to generate curves and calculate standard error.
High-throughput screening and follow-up analysis protocols. Test compounds and positive control 1 were delivered in 2.5 nL aliquots of DMSO with an Echo 550 liquid handler (LabCyte Inc.) into black 384-well microtiter plates (Corning). All test compounds were tested at 10 μM; positive control 1 was tested at 250 nM. DMSO was used as a negative control. Overnight cultures (2 mL) of WT S. aureus (RN6390b) were grown at 37° C. with shaking at 200 rpm. These cultures were diluted 1:500 (v/v) in fresh BHI medium, at which point vesicle solutions were added to a final concentration of 1 mM phospholipid (as determined by ^31P NMR analyses). This vesicle-cell mixture was then added to the 384-well microtiter plates with a Multidrop 384 liquid-dispensing robot (Thermo Scientific) for a total volume of 50 μL per well. Plates were incubated statically for ˜24 hr at 37° C., at which point fluorescence (excitation 483, emission 530) and OD600 (absorbance at 600 nm) measurements were made using a CLARIOstarR Plus microtiter plate reader (BMG Labtech) running MARS data analysis software. Scatter plots were generated using the Collaborative Drug Discovery Vault informatics platform. […] Fluorescence (excitation 510, emission 544) and OD600 measurements were acquired with a PerkinElmer EnVision microtiter plate reader running Envision Manager software. […]

Compound	IC50 [1] [nM]	calcein leakage with agr inhibitors at equivalent concentration [3]	further results
Cc1nn2c(C3CCC3)cc(C(=O)O)nc2c1-c1ccccc1 [Compound 14]	980		
CCCCCCCc1[nH]c2ccccc2c(=O)c1O [PQS, Pseudomonas quinolone signal]			effect on vesicle lysis / dye leakage (fluorescence over 12 hr) [2]: no observable influence on levels of fluorescence; also recorded: no observable effect
CCc1cc(C(=O)O)nc2c(-c3ccccc3)c(C)nn12 [Compound 15]	7670		
tr. AIP III D2A [Compound 3]		completely prevent calcein leakage	
Cc1nn2c(C3CC3)cc(C(=O)O)nc2c1-c1ccccc1 [Compound 13]	3350		
Cc1nn2c(C3CCCC3)cc(C(=O)O)nc2c1-c1ccccc1 [Compound 16]	840		
CCCC(=O)N[C@H]1CCOC1=O [BHL, N-butyryl-Lhomoserine lactone]			effect on vesicle lysis / dye leakage (fluorescence over 12 hr) [2]: earlier onset of dye leakage; also recorded: facilitate vesicle lysis
Cc1nn2c(C(C)(C)C)cc(C(=O)O)nc2c1-c1ccccc1 [Compound 17]	480		
CCCCCCCCCC(=O)CC(=O)N[C@H]1CCOC1=O [OdDHL, N-(3-oxo-dodecanoyl)-L-homoserine lactone]			effect on vesicle lysis / dye leakage (fluorescence over 12 hr) [2]: no observable influence on levels of fluorescence; also recorded: no observable effect
CCCc1cc(C(=O)O)nc2c(-c3ccccc3)c(C)nn12 [Compound 12]	2580		
CC[C@H](C)[C@H](N)C(=O)N[C@@H](CC(N)=O)C(=O)N[C@H]1CSC(=O)[C@H](CC(C)C)NC(=O)[C@H](CC(C)C)NC(=O)[C@H](Cc2ccccc2)NC(=O)[C@H](C)NC1=O [Compound 1, AIP III D4A] (H-INCAFLL; thioester 3-C)		completely prevent calcein leakage	effect on vesicle lysis (calcein fluorescence over 12 hr) ([3]; 100 nM 1, 10 μM 5, 20 μM 6, 10 μM AIP): wholly abrogated vesicle lysis; also recorded: repress vesicle lysis; effect of increasing concentration on onset of calcein leakage ([3]; 3-fold dilutions starting at 100 nM): increases in the times required for the onset of calcein leakage; impact on cell growth [4]: minimal impact on cell growth
AIP III D4A amide [Compound 2]		delayed response	
tr. AIP III D2A amide [Compound 4]		delayed response	
